# Patent US8889826B2, “Peptide antibiotics and methods for making same” (priority 2004, dated 2014)
# Legend:
# [1] = tested on: Escherichia coli, ATCC #26; assay: MIC by serial twofold broth dilution, E. coli; assay type: cell-based; set-up: unit not given here; settings: Mueller Hinton broth
# Description: (§1) The antibacterial activities of certain new compounds are indicated in Table 4 as their minimum inhibitory concentrations (MICs) against Escherichia coli, Staphylococcus aureus, and Pseudomonas aeruginosa. MICs can be determined by the conditions disclosed in Table 4, as well as in Jarolmen, H. et al., “Activity of Minocycline Against R-Factor Carrying Enterobacteriaceae,” Infectious Immunity, Vol. 1, No. 4, pp. 321-326, 1970, the disclosure of which is incorporated herein by reference.
# [2] = tested on: Pseudomonas aeruginosa, ATCC 27853; assay: MIC by serial twofold broth dilution, Pseudo; assay type: cell-based; set-up: unit not given here; settings: Mueller Hinton broth
# Description: as §1
# [3] = tested on: Staphylococcus aureus Smith; assay: MIC by serial twofold broth dilution, Staph; assay type: cell-based; set-up: unit not given here; settings: Mueller Hinton broth
# Description: as §1
# [4] = human, in vivo; cited from earlier work
Substance,E. coli MIC [1],Pseudo MIC [2],Staph MIC [3],"neurotoxicity, overall incidence [4] [%]"
Cyclohexylcarbamyl-[Ile^7]-Polymyxin Decapeptide [Compound 48],0.6,0.6,,
Polymyxin B1 [reference compound],0.6,0.6,10,
[Ile^7]-polymyxin B1 [reference compound],0.6,1.25,20,
Polymyxin B [reference compound],0.6,0.6,>10,
Colistin [reference compound],0.6,0.6,>20,7.3
N-(n-Decanoyl)phenylalanyl-colistin decapeptide [Compound 52],1.25,2.5,2.5,
P-Toluenesulfonyl-Colistin decapeptide [Compound 53],1.25,0.6,>20,
n-Octylcarbamyl-colistin decapeptide [Compound 51],1.25,0.6,20,
